Earlier results in patent US20200246414A1, “COMPOSITIONS AND METHODS FOR THE TREATMENT OF CONSTIPATION AND OTHER AILMENTS OF THE GASTROINTESTINAL SYSTEM” (K.L.R.M., LLC, priority 2019, published 2020).

Tested on: isolated gastric cells
Conditions: suspension of isolated gastric cells

SMILES | mucus secretion / mucus release
CCCOc1ccccc1-c1nc2[nH]nnc2c(=O)[nH]1 [M and B 22948] | increased the mucus release
O=[N+]([O-])O[C@H]1CO[C@H]2[C@@H]1OC[C@H]2O[N+](=O)[O-] [isosorbide dinitrate] | stimulated mucus secretion
CCCC(=O)Nc1nc2c(ncn2C2O[C@H]3COP(=O)(O)O[C@@H]3[C@@H]2OC(=O)CCC)c(=O)[nH]1 (stereo partly shown) [Dibutyryl cyclic GMP] | increased the mucus release
CC(=O)N[C@H](C(=O)O)C(C)(C)SN=O (racemic) [S-nitroso-N-acetylpenicillamine] | stimulated mucus secretion
